Measured values: patent US12708611B2, “Diagnostic and drug screening for molecular signatures of early onset sporadic parkinson's disease” (CEDARS-SINAI MEDICAL CENTER, priority 2018, dated 2026)
“Also recorded” adds a separate entry of the source. Where a SMILES comes first, the peptide text is derived from it. The star is where a group is joined. Cbz = O=C(OCc1ccccc1)*

Experiments:
[1] = test system: α-Synuclein; assay: Proteasome inhibition of DaN cultures, α-Synuclein western blot; format: cell-based, human; details: DaN cultures treated 24 hrs
Description: (§1) Protein degradation can be largely divided into protosomal and autophagy/lysosomal degradation pathways.

[2] = test system: P53; assay: Proteasome inhibition of DaN cultures, P53 western blot; format: cell-based, human; details: DaN cultures treated 24 hrs
Description: as §1

[3] = test system: TH; assay: Injection into ventricles of WT mice, TH in striatum; format: in vivo, mouse; details: WT mice, 0.3, 3, and 30 uM injected into ventricles, 1 and 5 days post injection
Procedure: (§2) In vivo, PEP stimulates synuclein degradation. Dosage studies of 0.3, 3, and 30 uM PEP was injected into the ventricles of WT mice.

[4] = test system: α-Synuclein; assay: Western blot of α-Synuclein in iPSC-derived DaNs treated with lysosomal agonists; format: cell-based, human; details: for amount of α-Synuclein protein: DaNs from control lines
Procedure: (§3) To test if the Inventors could reduce synuclein levels in our EOSPD DANs through activation of lysosomal specific pathways, the Inventors selected 3 lysosomal agonists. […] Starting at day 27, DaNs were treated for 3 days with the above lysosomal agonists.
(§4) The elevated phosphorylation of PKCa was absent in the undifferentiated iPSCs and no clear pattern was evident in peripheral blood from the individual patients indicating specificity to the differentiated DaNs.

[5] = test system: LC3; assay: Western blot of LC3 in PEP-treated DaNs; format: cell-based, human; details: PD cells
Description: as §4

[6] = test system: p-PKCa; assay: Western blot of phosphorylated PKC alpha in treated DaNs; format: cell-based, human
Description: as §4

[7] = test system: TH; assay: TH gene expression along time-course of PEP treatment; format: cell-based, human; details: paired time-course samples
Description: as §4

[8] = test system: SNCA; assay: SNCA gene expression along time-course of PEP treatment; format: cell-based, human; details: paired time-course samples
Description: as §4

[9] = test system: various cancer cell lines and primary acute myeloid leukaemia (AML) cells; details: cited from earlier work
[10] = test system: TH enzyme; assay: Western blot of TH enzyme in treated DaNs; format: cell-based, human; details: both control and PD DaNs
Procedure: as §3

[11] = PKC delta signal in DaN cultures on drug treatment; format: cell-based, human
Description: (§5) It is likely that the toxicity of PEP is more specific to highly proliferative cells whereas our differentiated neurons are largely post mitotoic.

[12] = test system: cleaved caspase 3 (CC3); assay: Cleaved caspase 3 in time-course of PEP treatment of DaNs; format: cell-based, human; details: PD cells, on drug treatment; listed as PEP
Description: as §4, §5

[13] = test system: synuclein; assay: Injection into ventricles of WT mice, synuclein in striatum; format: in vivo, mouse; details: WT mice, 0.3, 3, and 30 uM injected into ventricles, 1 and 5 days post injection
Procedure: as §2

[14] = test system: PKC C1 domains; details: cited from earlier work
[15] = test system: DaN cultures; assay: LDH on drug treatment of DaN cultures (cell death); format: cell-based, human
Description: as §5

[16] = test system: LAMP1; assay: Western blot of LAMP1 in PEP-treated DaNs; format: cell-based, human; details: for LAMP1 response to treatment: PD cells
Description: as §4
PEP is described as both an activator of the pro-apoptotic […] and an inhibitor of PKCα.

[17] = test system: PC12 cell model; details: cited from earlier work
[18] = treated 3 days starting at day 27
[19] = time-course, control and PD DaNs

CC(C)C[C@@H](C=O)NC(=O)[C@H](CC(C)C)NC(=O)[C@H](CC(C)C)NC(=O)OCc1ccccc1 [MG132] (Cbz-Leu-Leu-Leu-aldehyde)
α-Synuclein levels [1]: no substantial change | P53 level [2]: accumulation of P53

C/C=C(/C)C(=O)O[C@H]1C(C)=C[C@]23C(=O)[C@@H](C=C(CO)[C@@H](O)[C@]12O)[C@H]1[C@@H](C[C@H]3C)C1(C)C [PEP005, ingenol-3-angelate]
TH in mouse striatum [3]: increase in TH | amount of α-Synuclein protein [4, 18]: significantly reduced | synuclein levels ([4]; ESOPD DaNs, treated 3 days starting at day 27): substantially reduced | α-Synuclein levels ([4]; both control and PD DaNs): reduced | synuclein ([4]; luM PEP005 for 3 days, all treated lines): reduced synuclein | time until α-Synuclein is degraded in response to drug treatment [4, 19]: ≤ 24 h | LC3 response to treatment [5]: neither LAMP1 nor LC3 respond | PKC alpha phosphorylation signal ([6]; control and PD DaNs, at endpoint): completely ablating this signal | elevated phosphorylation of PKCa ([6]; luM PEP005 for 3 days, DaNs from all iPSC lines): clearly ablated | time until p-PKCa is degraded in response to drug treatment [6, 19]: ≤ 24 h | time after initial exposure at which TH is upregulated [7]: roughly 8 hours | time after treatment at which SNCA is downregulated [8]: 4 h | apoptosis ([9]; leukemic cell lines and primary AML cells): induces apoptosis | proliferation ([9]; various cancer cell lines and primary AML cells): inhibiting proliferation | amount of TH enzyme present [10]: increased amount of TH enzyme present | amount of TH enzyme present ([10]; listed as PEP): increase in the amount of TH | PKC6 signal [11]: did not observe a strong PKC6 signal | cleaved caspase 3 (CC3) present [12]: marked decrease; also recorded: decrease in the amount of active caspase 3 | synuclein in mouse striatum [13]: Reduction of synuclein | affinity for PKC C1 domains [14]: subnanomolar affinity | selectivity for individual PKC isoforms ([14]; in vitro): no selectivity | LDH on drug treatment [15]: nor do the Inventors see an increase in LDH | LAMP1 response to treatment [16]: does not appear to be replicated | LAMP1 response to treatment ([16]; listed as PEP): neither LAMP1 nor LC3 respond | lysosomal protein LAMP1 ([16]; control cells): increase

C=CCNc1ncnc2ccc(Br)cc12 [SMER28]
Huntington and α-Synuclein aggregates [17]: reduce Huntington and α-Synuclein aggregates | amount of α-Synuclein protein [4, 18]: significantly reduced

OC[C@H]1O[C@H](O[C@H]2O[C@H](CO)[C@@H](O)[C@H](O)[C@H]2O)[C@H](O)[C@@H](O)[C@@H]1O [Trehalose]
amount of α-Synuclein protein [4, 18]: not Trehalose significantly reduced
